These results are taken from patent US20120088791A1, “AMIDOBIPIPERIDINECARBOXYLATE M1 ALLOSTERIC AGONISTS, ANALOGS AND DERIVATIVES THEREOF, AND METHODS OF MAKING AND USING SAME” (VANDERBILT UNIVERSITY, priority 2009, published 2012).

One experiment has as its target T1, rM1 (Rattus norvegicus, UniProt P08482).
T1 construct: host or cells: CHO-K1
T1 sequence (P08482 1-460): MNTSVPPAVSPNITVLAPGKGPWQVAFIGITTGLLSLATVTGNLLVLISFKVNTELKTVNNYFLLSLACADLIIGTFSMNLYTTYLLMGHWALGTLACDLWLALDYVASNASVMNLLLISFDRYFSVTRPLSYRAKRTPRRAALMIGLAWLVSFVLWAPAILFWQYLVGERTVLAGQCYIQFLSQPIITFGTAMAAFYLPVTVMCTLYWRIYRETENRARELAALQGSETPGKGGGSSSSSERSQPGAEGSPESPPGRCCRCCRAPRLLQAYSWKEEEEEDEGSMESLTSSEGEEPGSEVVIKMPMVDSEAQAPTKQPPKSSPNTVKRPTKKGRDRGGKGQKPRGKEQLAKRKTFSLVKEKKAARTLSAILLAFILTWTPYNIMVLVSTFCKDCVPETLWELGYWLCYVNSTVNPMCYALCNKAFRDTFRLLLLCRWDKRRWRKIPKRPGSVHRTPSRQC
As to the kind of experiment: Calcium mobilization assay, CHO-K1 cells stably expressing rM1. The experiment is classed as cell-based. The following applies: Table 1, R-enantiomers; for Emax: RM1, read-out: Efficacy (% Max ACh); for EC50: agonist-evoked calcium flux, read-out: Potency (EC50). The source says: (§1) Cell culture and transfections. Chinese hamster ovary (CHO-K1) cells stably expressing rat (r)M1 were purchased from the American Type Culture Collection and cultured according to their indicated protocol. CHO cells stably expressing human (h)M2, hM3, and hM5 were used and described previously (Levey et al., 1991); rM4 cDNA, provided by T. I. Bonner (National Institutes of Health, Bethesda, Md.), was used to stably transfect CHO-K1 cells purchased from the American Type Culture Collection using Lipofectamine2000. To make stable hM2 and rM4 cell lines for use in calcium mobilization assays, these cells also were stably transfected with a chimeric G-protein (Gqi5) using Lipofectamine 2000. M1, hM3, and hM5 cells were grown in Ham's F-12 medium containing 10% heat-inactivated fetal bovine serum (FBS), 20 mM HEPES, and 50 μg/ml G418 sulfate. hM2-Gqi5 cells were grown in the same medium also containing 500 μg/ml Hygromycin B. Stable rM4-Gqi5 cells were grown in DMEM containing 10% heat-inactivated FBS, 20 mM HEPES, 400 μg/ml G418 sulfate, and 500 μg/ml Hygromycin B. The rat M1 Y381A orthosteric mutant receptor cDNA was generated using the Quik-Change site-directed mutagenesis kit (Stratagene) and verified by sequencing. CHO-K1 cells were stably transfected with this cDNA using Lipofectamine2000 and screened for expression based on calcium mobilization in response to the allosteric M1 agonist N-desmethylclozapine.
Calcium mobilization assays. For measurement of agonist-evoked increases in intracellular calcium, CHO-K1 cells stably expressing muscarinic receptors were plated in 100 μl of growth medium at 5×10^4 (rM1, hM3, and hM5) or 6×10^4 cells per well (rM1 Y381A, hM2, and rM4) in Costar 96-well black-walled, tissue culture (TC)-treated, clear-bottom plates (Fisher). Cells were incubated overnight at 37° C. and 5% CO2. The next day, medium was removed from the cells, and they were incubated with 50 μl of 2 μM Fluo-4 AM diluted in assay buffer [HBSS (Invitrogen) supplemented with 20 mM HEPES and 2.5 mM probenecid, pH 7.4] for 1 h at 37° C. Dye was removed and replaced with 45 μl of assay buffer. Agonists were diluted into assay buffer at a 2× concentration and applied to cells using the automated system at 19 s into the 130 s protocol. Calcium flux was measured over time as an increase in fluorescence (fold over basal) using the Flexstation plate reader (Molecular Devices).

The target of the next experiment is T2, hM2 (Homo sapiens, UniProt P08172).
T2 construct: expressed in transfected cells; host or cells: CHO cells, also stably transfected with chimeric G-protein Gqi5
T2 sequence (P08172 1-466): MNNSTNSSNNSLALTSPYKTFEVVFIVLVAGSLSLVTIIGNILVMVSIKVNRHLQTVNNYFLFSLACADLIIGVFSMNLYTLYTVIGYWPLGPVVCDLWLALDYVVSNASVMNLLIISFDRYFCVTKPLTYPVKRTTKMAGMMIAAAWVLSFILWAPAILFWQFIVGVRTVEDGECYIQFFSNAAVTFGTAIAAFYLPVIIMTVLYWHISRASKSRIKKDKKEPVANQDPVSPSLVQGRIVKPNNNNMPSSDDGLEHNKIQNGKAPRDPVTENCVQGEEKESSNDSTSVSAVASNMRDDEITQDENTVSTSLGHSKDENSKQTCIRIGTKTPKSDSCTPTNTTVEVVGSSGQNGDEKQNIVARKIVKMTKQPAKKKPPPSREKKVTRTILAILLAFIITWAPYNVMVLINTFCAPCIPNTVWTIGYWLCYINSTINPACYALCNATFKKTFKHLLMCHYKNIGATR
Description: Calcium mobilization assay, CHO cells stably expressing hM2-Gqi5. The following applies: selectivity for M1; read-out: potency (EC50) versus M2. The class given is cell-based.
Excerpt: as §1, with “CHO-K1 cells were stably transfected with this cDNA using Lipofectamine2000 and screened for expression based on calcium mobilization in response to the allosteric M1 agonist N-desmethylclozapine.” left out
(§2) Calcium mobilization assays. […] Calcium flux was measured over time as an increase in fluorescence (fold over basal) using the Flexstation plate reader (Molecular Devices).
A general note: Calcium flux is commonly read through the fluorescence of an indicator in the cells.

The next experiment concerns the target T3, hM3 (Homo sapiens, UniProt P20309).
T3 construct: expressed in transfected cells; host or cells: CHO cells
Description: Calcium mobilization assay, CHO cells stably expressing hM3. The experiment is classed as cell-based. The following applies: selectivity for M1; read-out: potency (EC50) versus M3.
Excerpt: as §1, with “CHO-K1 cells were stably transfected with this cDNA using Lipofectamine2000 and screened for expression based on calcium mobilization in response to the allosteric M1 agonist N-desmethylclozapine.” left out
as §2

The target in the next experiment is T4, rM4 (Rattus norvegicus, UniProt P08485).
T4 construct: expressed in transfected cells; host or cells: CHO-K1 cells, also stably transfected with chimeric G-protein Gqi5
T4 sequence (P08485 1-478): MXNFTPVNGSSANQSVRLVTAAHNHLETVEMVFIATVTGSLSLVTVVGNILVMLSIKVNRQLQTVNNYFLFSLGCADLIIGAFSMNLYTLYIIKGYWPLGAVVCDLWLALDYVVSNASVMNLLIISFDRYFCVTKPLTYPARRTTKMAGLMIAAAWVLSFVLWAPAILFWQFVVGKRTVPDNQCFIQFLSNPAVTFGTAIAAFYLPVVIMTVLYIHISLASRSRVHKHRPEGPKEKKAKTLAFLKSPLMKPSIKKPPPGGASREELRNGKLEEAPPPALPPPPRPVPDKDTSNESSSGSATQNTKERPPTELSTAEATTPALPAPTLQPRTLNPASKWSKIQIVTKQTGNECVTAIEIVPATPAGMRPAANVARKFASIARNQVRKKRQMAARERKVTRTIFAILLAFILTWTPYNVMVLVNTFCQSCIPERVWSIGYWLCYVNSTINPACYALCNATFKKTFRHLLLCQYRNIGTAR
Description: Calcium mobilization assay, CHO-K1 cells stably expressing rM4-Gqi5. The class given is cell-based. The following applies: selectivity for M1; read-out: potency (EC50) versus M4.
Excerpt: as §1, with “CHO-K1 cells were stably transfected with this cDNA using Lipofectamine2000 and screened for expression based on calcium mobilization in response to the allosteric M1 agonist N-desmethylclozapine.” left out
as §2

The target in the next experiment is T5, hM5 (Homo sapiens, UniProt P08912).
T5 construct: expressed in transfected cells; host or cells: CHO cells
T5 sequence (P08912 1-532): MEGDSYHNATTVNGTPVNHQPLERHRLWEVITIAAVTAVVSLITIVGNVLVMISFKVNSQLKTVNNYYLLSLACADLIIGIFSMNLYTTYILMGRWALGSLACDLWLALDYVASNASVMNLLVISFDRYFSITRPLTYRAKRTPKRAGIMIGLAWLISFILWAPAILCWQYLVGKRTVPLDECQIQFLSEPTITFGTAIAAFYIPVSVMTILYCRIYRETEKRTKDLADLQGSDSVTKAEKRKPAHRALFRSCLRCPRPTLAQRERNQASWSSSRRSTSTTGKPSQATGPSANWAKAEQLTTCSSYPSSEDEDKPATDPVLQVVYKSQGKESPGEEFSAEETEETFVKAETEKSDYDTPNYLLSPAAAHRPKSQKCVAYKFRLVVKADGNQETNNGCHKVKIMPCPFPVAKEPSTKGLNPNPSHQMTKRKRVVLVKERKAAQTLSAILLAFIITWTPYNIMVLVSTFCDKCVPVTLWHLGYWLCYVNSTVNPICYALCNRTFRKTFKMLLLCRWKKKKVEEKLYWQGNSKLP
Description: Calcium mobilization assay, CHO cells stably expressing hM5. The experiment is classed as cell-based. The settings on record: selectivity for M1; read-out: potency (EC50) versus M5.
Excerpt: as §1, with “CHO-K1 cells were stably transfected with this cDNA using Lipofectamine2000 and screened for expression based on calcium mobilization in response to the allosteric M1 agonist N-desmethylclozapine.” left out
as §2

The conditions of experiment [1]: multiple preclinical models; cited from earlier work.
Experiment [2] concerns Aβ 1-40 and 1-42 production. The settings on record: in vitro; cited from earlier work.
For experiment [3] the following is noted: preclinical and clinical studies; cited from earlier work.

T3 sequence (P20309 whole entry): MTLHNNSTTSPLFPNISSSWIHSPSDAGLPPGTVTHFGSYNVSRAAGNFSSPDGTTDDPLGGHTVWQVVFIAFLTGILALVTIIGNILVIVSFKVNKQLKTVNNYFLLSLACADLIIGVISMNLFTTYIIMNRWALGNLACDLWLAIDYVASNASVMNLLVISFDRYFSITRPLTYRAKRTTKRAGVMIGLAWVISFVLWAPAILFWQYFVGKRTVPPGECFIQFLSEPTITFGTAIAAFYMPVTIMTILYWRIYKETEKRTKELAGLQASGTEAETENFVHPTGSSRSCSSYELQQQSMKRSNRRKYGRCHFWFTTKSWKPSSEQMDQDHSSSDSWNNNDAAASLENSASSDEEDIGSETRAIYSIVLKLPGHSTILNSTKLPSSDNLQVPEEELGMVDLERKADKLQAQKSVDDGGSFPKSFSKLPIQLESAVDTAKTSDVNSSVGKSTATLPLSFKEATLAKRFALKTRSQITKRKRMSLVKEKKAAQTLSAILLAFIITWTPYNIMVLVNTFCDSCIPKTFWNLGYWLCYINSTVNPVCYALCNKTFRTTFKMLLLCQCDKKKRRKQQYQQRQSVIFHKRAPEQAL

Broadly, the EC50 is the concentration at which the effect is half-maximal. As for `CCOC(=O)N1CCC(N2CCC[C@@H](NC(=O)c3ccccc3)C2)CC1` [(R)-ethyl 3-benzamido-1,4′-bipiperidine-1′-carboxylate], the Emax on rM1 was 91%. The EC50 is 0.127 µM at rM1; > 50 µM at hM2; > 50 µM at hM3; > 50 µM at rM4; > 50 µM on hM5.

With `CCOC(=O)N1CCC(N2CCC[C@@H](NC(=O)c3ccccc3C)C2)CC1` [(R)-ethyl 3-(2-methylbenzamido)-1,4′-bipiperidine-1′-carboxylate], at rM1, the Emax was found to be 96%. In addition, the EC50 at rM1 was 0.088 µM; at hM2 it was > 50 µM; on hM3, > 50 µM; at rM4, > 50 µM; on hM5 it was > 50 µM.

Consider `Cc1ccccc1CN1CCC(N2CCC(n3c(=O)[nH]c4ccccc43)CC2)CC1` [TBPB], for which, in experiment [1], the “efficacy in preclinical models of schizophrenia” value is “demonstrated efficacy”. Moreover, the “effect on Aβ 1-40 and 1-42 production” value in experiment [2] is “decrease Aβ 1-40 and 1-42 production in vitro”.

For `CCCCCCOc1nsnc1C1=CCCN(C)C1` [Xanomeline], the “efficacy with regard to positive, negative and cognitive symptoms” value in experiment [3] is “proved efficacious”.
